Data reported in PubChem BioAssay (NCI).
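Step 1: Grow cells in 96-well plates. Step 2: Expose to compound for 48 hours at 5 concentrations. Step 3: Interpolate endpoints linearly; if unreached, use highest concentration. Here, GI50 denotes the concentration required for 50% inhibition of growth. Definition used: TGI = concentration required for complete inhibition of growth.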

Columns and labels:
Assay in all cases: growth of human tumour cells (NCI), 48 h
MDA-MB-435 = tested on: MDA-MB-435
OVCAR-4 ovarian = tested on: OVCAR-4 ovarian
MCF7 breast = tested on: MCF7 breast
OVCAR-3 ovarian = tested on: OVCAR-3 ovarian
A549 NSCLC = tested on: A549 NSCLC
UACC-62 melanoma = tested on: UACC-62 melanoma
A498 renal = tested on: A498 renal
SK-MEL-5 melanoma = tested on: SK-MEL-5 melanoma
K-562 leukemia = tested on: K-562 leukemia
HOP-62 NSCLC = tested on: HOP-62 NSCLC
SK-OV-3 ovarian = tested on: SK-OV-3 ovarian
HCC-2998 colon = tested on: HCC-2998 colon
CAKI-1 renal = tested on: CAKI-1 renal
T-47D breast = tested on: T-47D breast
SF-268 CNS = tested on: SF-268 CNS
HT29 colon = tested on: HT29 colon
TK-10 renal = tested on: TK-10 renal
SNB-19 CNS = tested on: SNB-19 CNS
SK-MEL-28 melanoma = tested on: SK-MEL-28 melanoma
EKVX NSCLC = tested on: EKVX NSCLC
SR leukemia = tested on: SR leukemia
786-0 renal = tested on: 786-0 renal
MDA-MB-231 breast = tested on: MDA-MB-231 breast
COLO 205 colon = tested on: COLO 205 colon
RPMI-8226 leukemia = tested on: RPMI-8226 leukemia
IGROV1 ovarian = tested on: IGROV1 ovarian
KM12 colon = tested on: KM12 colon
DU-145 prostate = tested on: DU-145 prostate
UO-31 renal = tested on: UO-31 renal
NCI/ADR-RES ovarian = tested on: NCI/ADR-RES ovarian
ACHN renal = tested on: ACHN renal
HCT-15 colon = tested on: HCT-15 colon
HL-60(TB) leukemia = tested on: HL-60(TB) leukemia
HOP-92 NSCLC = tested on: HOP-92 NSCLC
NCI-H226 lung = tested on: NCI-H226 lung
NCI-H522 lung = tested on: NCI-H522 lung
LOX IMVI melanoma = tested on: LOX IMVI melanoma
NCI-H23 lung = tested on: NCI-H23 lung
MALME-3M melanoma = tested on: MALME-3M melanoma
UACC-257 melanoma = tested on: UACC-257 melanoma
SF-295 CNS = tested on: SF-295 CNS
NCI-H460 lung = tested on: NCI-H460 lung
M14 melanoma = tested on: M14 melanoma
SN12C renal = tested on: SN12C renal
HS 578T breast = tested on: HS 578T breast
SK-MEL-2 melanoma = tested on: SK-MEL-2 melanoma
OVCAR-5 ovarian = tested on: OVCAR-5 ovarian
MOLT-4 leukemia = tested on: MOLT-4 leukemia
U251 CNS = tested on: U251 CNS
SF-539 CNS = tested on: SF-539 CNS
RXF 393 renal = tested on: RXF 393 renal
OVCAR-8 ovarian = tested on: OVCAR-8 ovarian
SW-620 colon = tested on: SW-620 colon
PC-3 prostate = tested on: PC-3 prostate
SNB-75 CNS = tested on: SNB-75 CNS
CCRF-CEM leukemia = tested on: CCRF-CEM leukemia
HCT-116 colon = tested on: HCT-116 colon
BT-549 breast = tested on: BT-549 breast

For `COc1cc(/C=C/C(=O)c2cc(OC)c(OC)c(OC)c2)ccc1Oc1nc(NCCO)nc(N2CCOCC2)n1`, the GI50 (MDA-MB-435) was 3.1 µM, the TGI (MDA-MB-435) was 11 µM and the GI50 (OVCAR-4 ovarian) was 2.92 µM. It also gave a TGI (OVCAR-4 ovarian) of 10.5 µM, a GI50 (MCF7 breast) of 1.72 µM and a TGI (MCF7 breast) of 10.8 µM. The GI50 (OVCAR-3 ovarian) was 3.2 µM, the TGI (OVCAR-3 ovarian) was 10.6 µM and the GI50 (A549 NSCLC) was 2.78 µM. For the same compound, the TGI (A549 NSCLC) was 9.4 µM, the GI50 (UACC-62 melanoma) was 1.69 µM and the TGI (UACC-62 melanoma) was 3.19 µM. The GI50 (A498 renal) was 3.58 µM, the TGI (A498 renal) was 13.3 µM and the GI50 (SK-MEL-5 melanoma) was 1.77 µM. For the same compound, the TGI (SK-MEL-5 melanoma) was 3.31 µM, the GI50 (K-562 leukemia) was 1.91 µM and the TGI (K-562 leukemia) was over 100 µM. For the same compound, the GI50 (HOP-62 NSCLC) was 2.35 µM, the TGI (HOP-62 NSCLC) was 6.04 µM and the GI50 (SK-OV-3 ovarian) was 2.44 µM. The TGI (SK-OV-3 ovarian) was 6.34 µM, the GI50 (HCC-2998 colon) was 2.23 µM and the TGI (HCC-2998 colon) was 4.22 µM. For the same compound, the GI50 (CAKI-1 renal) was 2.43 µM, the TGI (CAKI-1 renal) was 9.16 µM and the GI50 (T-47D breast) was 3.12 µM. For the same compound, the TGI (T-47D breast) was 11.8 µM, the GI50 (SF-268 CNS) was 3.02 µM and the TGI (SF-268 CNS) was 12.9 µM. For the same compound, the GI50 (HT29 colon) was 2.83 µM, the TGI (HT29 colon) was 8.44 µM and the GI50 (TK-10 renal) was 3.12 µM. For the same compound, the TGI (TK-10 renal) was 8.93 µM, the GI50 (SNB-19 CNS) was 2.31 µM and the TGI (SNB-19 CNS) was 7.07 µM. The GI50 (SK-MEL-28 melanoma) was 1.92 µM, the TGI (SK-MEL-28 melanoma) was 3.81 µM and the GI50 (EKVX NSCLC) was 2.81 µM. The TGI (EKVX NSCLC) was 9.99 µM, the GI50 (SR leukemia) was 0.784 µM and the TGI (SR leukemia) was 4.8 µM. It also gave a GI50 (786-0 renal) of 3.46 µM, a TGI (786-0 renal) of 13 µM and a GI50 (MDA-MB-231 breast) of 2.86 µM. The TGI (MDA-MB-231 breast) was 11.3 µM, the GI50 (COLO 205 colon) was 2.1 µM and the TGI (COLO 205 colon) was 4.39 µM. For the same compound, the GI50 (RPMI-8226 leukemia) was 1.63 µM, the TGI (RPMI-8226 leukemia) was 5.85 µM and the GI50 (IGROV1 ovarian) was 2.45 µM. The TGI (IGROV1 ovarian) was 6.17 µM, the GI50 (KM12 colon) was 2.99 µM and the TGI (KM12 colon) was 9.63 µM. For the same compound, the GI50 (DU-145 prostate) was 2.99 µM, the TGI (DU-145 prostate) was 12.4 µM and the GI50 (UO-31 renal) was 1.66 µM. The TGI (UO-31 renal) was 3.28 µM, the GI50 (NCI/ADR-RES ovarian) was 4.72 µM and the TGI (NCI/ADR-RES ovarian) was 23.4 µM. It also gave a GI50 (ACHN renal) of 1.64 µM, a TGI (ACHN renal) of 3.6 µM and a GI50 (HCT-15 colon) of 1.6 µM. The TGI (HCT-15 colon) was 4.01 µM, the GI50 (HL-60(TB) leukemia) was 1.54 µM and the TGI (HL-60(TB) leukemia) was 6.8 µM. For the same compound, the GI50 (HOP-92 NSCLC) was 2.75 µM, the TGI (HOP-92 NSCLC) was 9.99 µM and the GI50 (NCI-H226 lung) was 3.69 µM. For the same compound, the TGI (NCI-H226 lung) was 19.7 µM, the GI50 (NCI-H522 lung) was 1.56 µM and the TGI (NCI-H522 lung) was 3.17 µM. It also gave a GI50 (LOX IMVI melanoma) of 0.642 µM, a TGI (LOX IMVI melanoma) of 2.04 µM and a GI50 (NCI-H23 lung) of 1.99 µM. The TGI (NCI-H23 lung) was 4.8 µM, the GI50 (MALME-3M melanoma) was 2.67 µM and the TGI (MALME-3M melanoma) was 6.74 µM. It also gave a GI50 (UACC-257 melanoma) of 2.83 µM, a TGI (UACC-257 melanoma) of 12.7 µM and a GI50 (SF-295 CNS) of 2.9 µM. It also gave a TGI (SF-295 CNS) of 10.6 µM, a GI50 (NCI-H460 lung) of 1.87 µM and a TGI (NCI-H460 lung) of 4.03 µM. The GI50 (M14 melanoma) was 2.38 µM, the TGI (M14 melanoma) was 7.32 µM and the GI50 (SN12C renal) was 1.79 µM. It also gave a TGI (SN12C renal) of 5.72 µM, a GI50 (HS 578T breast) of 3.62 µM and a TGI (HS 578T breast) of 22.4 µM. It also gave a GI50 (SK-MEL-2 melanoma) of 2.76 µM, a TGI (SK-MEL-2 melanoma) of 8.19 µM and a GI50 (OVCAR-5 ovarian) of 3.14 µM. It also gave a TGI (OVCAR-5 ovarian) of 10.6 µM, a GI50 (MOLT-4 leukemia) of 1.98 µM and a TGI (MOLT-4 leukemia) of 8.02 µM. It also gave a GI50 (U251 CNS) of 1.62 µM, a TGI (U251 CNS) of 3.12 µM and a GI50 (SF-539 CNS) of 1.88 µM. The TGI (SF-539 CNS) was 4.58 µM, the GI50 (RXF 393 renal) was 1.75 µM and the TGI (RXF 393 renal) was 3.48 µM. It also gave a GI50 (OVCAR-8 ovarian) of 2.56 µM, a TGI (OVCAR-8 ovarian) of 10.1 µM and a GI50 (SW-620 colon) of 2.24 µM. The TGI (SW-620 colon) was 5.78 µM, the GI50 (PC-3 prostate) was 3.11 µM and the TGI (PC-3 prostate) was 13.5 µM. It also gave a GI50 (SNB-75 CNS) of 1.79 µM, a TGI (SNB-75 CNS) of 6.2 µM and a GI50 (CCRF-CEM leukemia) of 2.38 µM. For the same compound, the TGI (CCRF-CEM leukemia) was 23.5 µM, the GI50 (HCT-116 colon) was 1.53 µM and the TGI (HCT-116 colon) was 3.23 µM. The GI50 (BT-549 breast) was 1.6 µM and the TGI (BT-549 breast) was 3.32 µM.
